Measured values: ChEMBL document CHEMBL5376026, “Design, synthesis, and antiproliferative evaluation of novel dehydroabietic acid-1,2,3-triazole-oxazolidinone hybrids” (RSC Med Chem, 2024)
The source made the active and inactive calls. The rule behind the calls is not given here.

Legend:
MGC-803 [1] = test: Induction of cell cycle arrest in human MGC-803 cells assessed as accumulation of cells at G2/M phase at 2.5 uM incubated for 48 hrs by propidium iodide staining based flow cytometry (reference value: 16.81%); type: functional
MGC-803 [2] = test: Induction of apoptosis in human MGC-803 cells assessed as viable cells at 10 uM incubated for 48 hrs by Annexin-V FITC and PI staining based flow cytometry (reference value: 98.3%); type: functional; settings: read-out: Activity
T-24 = test: Anticancer activity against human T-24 cells assessed as inhibition of cell growth incubated for 48 hrs by MTT assay; type: functional, cell-based; settings: T-24, 48 h
MGC-803 [3] = test: Induction of apoptosis in human MGC-803 cells assessed as necrotic cells at 2.5 uM incubated for 48 hrs by Annexin-V FITC and PI staining based flow cytometry (reference value: 0.68%); type: functional
MGC-803 [4] = test: Induction of cell cycle arrest in human MGC-803 cells assessed as accumulation of cells at G0/G1 phase at 2.5 uM incubated for 48 hrs by propidium iodide staining based flow cytometry (reference value: 50.67%); type: functional
MGC-803 [5] = test: Induction of apoptosis in human MGC-803 cells assessed as late apoptotic cells at 2.5 uM incubated for 48 hrs by Annexin-V FITC and PI staining based flow cytometry (reference value: 0.81%); type: functional
MGC-803 [6] = test: Induction of apoptosis in human MGC-803 cells assessed as chromatin condensation incubated for 48 hrs by Hoechst 33258 staining based fluorescence microscopic analysis; type: functional, cell-based; settings: dose 2.5-10 µM
MGC-803 [7] = test: Induction of apoptosis in human MGC-803 cells assessed as increase in apoptotic nuclei incubated for 48 hrs by Hoechst 33258 staining based fluorescence microscopic analysis; type: functional, cell-based; settings: dose 2.5-10 µM
MGC-803 [8] = test: Induction of apoptosis in human MGC-803 cells assessed as viable cells at 2.5 uM incubated for 48 hrs by Annexin-V FITC and PI staining based flow cytometry (reference value: 98.3%); type: functional; settings: read-out: Activity
MGC-803 [9] = test: Induction of cell cycle arrest in human MGC-803 cells assessed as accumulation of cells at G0/G1 phase at 5 uM incubated for 48 hrs by propidium iodide staining based flow cytometry (reference value: 50.67%); type: functional
HepG2 = test: Anticancer activity against human HepG2 cells assessed as inhibition of cell growth incubated for 48 hrs by MTT assay; type: functional, cell-based; settings: HepG2, 48 h
MGC-803 [10] = test: Induction of mitochondrial membrane potential loss in human MGC-803 cells at 2.5 uM incubated for 10 to 24 hrs by JC-1 staining based fluorescence microscopic assay; type: functional, cell-based; settings: time 10-24 hrs
MGC-803 [11] = test: Induction of apoptosis in human MGC-803 cells assessed as late apoptotic cells at 10 uM incubated for 48 hrs by Annexin-V FITC and PI staining based flow cytometry (reference value: 0.81%); type: functional
MGC-803 [12] = test: Anticancer activity against human MGC-803 cells assessed as inhibition of cell growth incubated for 48 hrs by MTT assay; type: functional, cell-based; settings: MGC-803, 48 h
MGC-803 [13] = test: Induction of cell cycle arrest in human MGC-803 cells assessed as accumulation of cells at S phase at 5 uM incubated for 48 hrs by propidium iodide staining based flow cytometry (reference value: 33.22%); type: functional
MGC-803 [14] = test: Induction of reactive oxygen species generation in human MGC-803 cells at 2.5 to 10 uM incubated for 48 hrs by DCFH-DA staining based fluorescence microscopic analysis; type: functional, cell-based; settings: dose 2.5-10 µM
MGC-803 [15] = test: Induction of cell cycle arrest in human MGC-803 cells assessed as accumulation of cells at G2/M phase at 5 uM incubated for 48 hrs by propidium iodide staining based flow cytometry (reference value: 16.81%); type: functional
MGC-803 [16] = test: Induction of apoptosis in human MGC-803 cells assessed as apoptosis rate at 10 uM incubated for 48 hrs by Annexin-V FITC and PI staining based flow cytometry (reference value: 0.42%); type: functional
MGC-803 [17] = test: Induction of cell cycle arrest in human MGC-803 cells assessed as accumulation of cells at S phase at 2.5 uM incubated for 48 hrs by propidium iodide staining based flow cytometry (reference value: 33.22%); type: functional
MGC-803 [18] = test: Induction of apoptosis in human MGC-803 cells assessed as late apoptotic cells at 5 uM incubated for 48 hrs by Annexin-V FITC and PI staining based flow cytometry (reference value: 0.81%); type: functional
HeLa = test: Anticancer activity against human HeLa cells assessed as inhibition of cell growth incubated for 48 hrs by MTT assay; type: functional, cell-based
MGC-803 [19] = test: Induction of apoptosis in human MGC-803 cells assessed as necrotic cells at 10 uM incubated for 48 hrs by Annexin-V FITC and PI staining based flow cytometry (reference value: 0.68%); type: functional
MGC-803 [20] = test: Induction of apoptosis in human MGC-803 cells assessed as viable cells at 5 uM incubated for 48 hrs by Annexin-V FITC and PI staining based flow cytometry (reference value: 98.3%); type: functional; settings: read-out: Activity
MGC-803 [21] = test: Induction of apoptosis in human MGC-803 cells assessed as apoptosis rate at 2.5 uM incubated for 48 hrs by Annexin-V FITC and PI staining based flow cytometry (reference value: 0.42%); type: functional
MGC-803 [22] = test: Induction of apoptosis in human MGC-803 cells assessed as apoptosis rate at 5 uM incubated for 48 hrs by Annexin-V FITC and PI staining based flow cytometry (reference value: 0.42%); type: functional
MGC-803 [23] = test: Induction of cell cycle arrest in human MGC-803 cells assessed as accumulation of cells at S phase at 10 uM incubated for 48 hrs by propidium iodide staining based flow cytometry (reference value: 33.22%); type: functional
MGC-803 [24] = test: Induction of apoptosis in human MGC-803 cells assessed as early apoptotic cells at 10 uM incubated for 48 hrs by Annexin-V FITC and PI staining based flow cytometry (reference value: 0.20%); type: functional
MGC-803 [25] = test: Induction of apoptosis in human MGC-803 cells assessed as necrotic cells at 5 uM incubated for 48 hrs by Annexin-V FITC and PI staining based flow cytometry (reference value: 0.68%); type: functional
MGC-803 [26] = test: Induction of apoptosis in human MGC-803 cells assessed as early apoptotic cells at 5 uM incubated for 48 hrs by Annexin-V FITC and PI staining based flow cytometry (reference value: 0.20%); type: functional
MGC-803 [27] = test: Induction of apoptosis in human MGC-803 cells assessed as early apoptotic cells at 2.5 uM incubated for 48 hrs by Annexin-V FITC and PI staining based flow cytometry (reference value: 0.20%); type: functional
[28] = Cytotoxicity against human LO2 cells assessed as reduction in cell viability incubated for 48 hrs by MTT assay; type: toxicity, cell-based, L02
MGC-803 [29] = test: Induction of cell cycle arrest in human MGC-803 cells assessed as accumulation of cells at G2/M phase at 10 uM incubated for 48 hrs by propidium iodide staining based flow cytometry (reference value: 16.81%); type: functional
MGC-803 [30] = test: Induction of cell cycle arrest in human MGC-803 cells assessed as accumulation of cells at G0/G1 phase at 10 uM incubated for 48 hrs by propidium iodide staining based flow cytometry (reference value: 50.67%); type: functional

CC(C)c1ccc2c(c1)CC[C@H]1[C@](C)(C(=O)OCc3cn(CC4CN(c5ccc(Br)cc5)C(=O)O4)nn3)CCC[C@]21C (stereo partly drawn)
Activity (MGC-803 [1]): 13.7% | viability at 10 µM (MGC-803 [2]): 14% | IC50 (T-24): 14.2 µM | Activity (MGC-803 [3]): 1.32% | Activity (MGC-803 [4]): 52.14% | Activity (MGC-803 [5]): 6.25% | Activity (MGC-803 [6]): Dose-Dependent Effect | Activity (MGC-803 [7]): Dose-Dependent Effect | viability at 2.5 µM (MGC-803 [8]): 87.5% | Activity (MGC-803 [9]): 54.14% | IC50 (HepG2): 11.7 µM | Activity (MGC-803 [10]): Active | Activity (MGC-803 [11]): 2.64% | IC50 (MGC-803 [12]): 3.18 µM | Activity (MGC-803 [13]): 33.63% | Activity (MGC-803 [14]): Active | Activity (MGC-803 [15]): 12.52% | Activity (MGC-803 [16]): 33.34% | Activity (MGC-803 [17]): 34.79% | Activity (MGC-803 [18]): 12% | IC50 (HeLa): 25.3 µM | Activity (MGC-803 [19]): 1.25% | viability at 5 µM (MGC-803 [20]): 68.8% | Activity (MGC-803 [21]): 6% | Activity (MGC-803 [22]): 8.87% | Activity (MGC-803 [23]): 33.22% | Activity (MGC-803 [24]): 82.1% | Activity (MGC-803 [25]): 2.9% | Activity (MGC-803 [26]): 16.2% | Activity (MGC-803 [27]): 4.89% | IC50 at 48 h [28]: 40 µM | Activity (MGC-803 [29]): 11.23% | Activity (MGC-803 [30]): 55.64%
